This note sets out measurements from patent publication US20240390512A1, “METHODS OF TREATING CHEMOTHERAPY-RESISTANT CANCER WITH AN ANTIBODY-DRUG CONJUGATE” (DAIICHI SANKYO COMPANY, LIMITED, priority 2021, published 2024).

In assay [1] the test system is Human ovarian cancer cell line OV-90. As to the kind of experiment: Antitumor study (2), combination with carboplatin, OV-90 xenograft. As to conditions: Day 21; ADC (1) 1 mg/kg iv Day 0, carboplatin 50 mg/kg iv Day 0.
Text: Human ovarian cancer cell line OV-90, which was purchased from ATCC, was suspended into Matrigel (Corning Inc.), subcutaneously transplanted at 2.5×10^6 cells into the right side of female nude mice, and the mice were randomly grouped 14 days after the transplantation (Day 0). […] Single administration groups of each drug, a combined administration group, and a solvent administration group as a control group were set up.
The test system of assay [2] is Human ovarian cancer cell line NIH:OVCAR-3. As to the kind of experiment: Antitumor study (1), combination with carboplatin, NIH:OVCAR-3 xenograft. As to conditions: Day 21; ADC (1) 0.3 mg/kg iv Day 0, carboplatin 50 mg/kg iv Day 0.
Experimental: Human ovarian cancer cell line NIH:OVCAR-3, which was purchased from ATCC, was suspended into Matrigel (Corning Inc.), subcutaneously transplanted at 1.0×10^7 cells into the right side of female nude mice, and the mice were randomly grouped 24 days after the transplantation (Day 0). The antibody-drug conjugate (1) (formula 4) (DAR: 7.9) was intravenously administered to the tail vein at a dose of 0.3 mg/kg on Day 0. […] Single administration groups of each drug, a combined administration group, and a solvent administration group as a control group were set up.
For assay [3], the system named is Human ovarian cancer cell line OV-90. In words: Antitumor study (4), combination with gemcitabine, OV-90 xenograft. As to conditions: Day 21; ADC (1) 3 mg/kg iv Day 0, gemcitabine 15 mg/kg iv Day 0, 7, 14. The assay is classed as in vivo, mouse. As to the method:
Measurement and calculation formula: In the study, the major axis and minor axis of tumors were measured up to 3 times a week with an electronic digital caliper (CD15-CX, Mitutoyo Corp.), and the tumor volume (mm^3) was calculated. The calculation formula is as shown below.

Assay [4] has as its system Human ovarian cancer cell line NIH:OVCAR-3. In words: In vivo antitumor effect after long-term treatment of carboplatin and paclitaxel, NIH:OVCAR-3 xenograft. As to conditions: carboplatin 50 mg/kg and paclitaxel 30 mg/kg iv. The arrangement: species or system mouse. How it is done: Measurement and calculation formula: In the study, the major axis and minor axis of tumors were measured up to 3 times a week with an electronic digital caliper (CD15-CX, Mitutoyo Corp.), and the tumor volume (mm^3) was calculated. The calculation formula is as shown below. Tumor volume (mm^3)=½×Major axis (mm)×[Minor axis (mm)]^2.
Carboplatin was diluted with physiological saline, and intravenously administered to the tail vein in a fluid volume of 10 mL/kg. Paclitaxel was dissolved with cremophor and ethanol (1:1), diluted with physiological saline, and then intravenously administered to the tail vein in a fluid volume of 10 mL/kg. The antibody-drug conjugate (formula 4) was diluted with ABS buffer (10 mM acetate buffer [pH 5.5], 5% sorbitol), and intravenously administered to the tail vein in a fluid volume of 10 mL/kg.
For clarity, the antibody comprised in the antibody-drug conjugate (1) administered is referred as “H01L02” in the present invention.

Assay [5] relates to Human ovarian cancer cell line OV-90. The format is in vivo, mouse. As to conditions: Day 15; ADC (1) 10 mg/kg iv Day 0, carboplatin 50 mg/kg iv Day 0, paclitaxel 20 mg/kg iv Day 1. How it is done: Measurement and calculation formula: In the study, the major axis and minor axis of tumors were measured twice a week with an electronic digital caliper (CD15-CX, Mitutoyo Corp.), and the tumor volume (mm^3) was calculated. The calculation formula is as shown below.

Read-outs that look alike come from different tables or passages of the source. Where only a bound is given, the exact number is not on record here.

As to `N.N.O=C([O-])C1(C(=O)[O-])CCC1.[Pt+2]` [carboplatin], the TGI in assay [1] is recorded as 23%. The “tumor growth inhibition (TGI)” value in assay [2] turned out to be 47%.
In the case of `Nc1ccn([C@@H]2O[C@H](CO)[C@@H](O)C2(F)F)c(=O)n1` [gemcitabine], in assay [3], the TGI was 23%.
Take carboplatin and paclitaxel: in assay [4] (12 mice), the “tumor response to the first dosing” value is “the tumor regressed in all cases”. In addition, in assay [4] (regrowth in all most cases), the “time to tumor regrowth after the first dosing” value is at most 6 weeks. This compound also had a TGI in assay [5] of 65%.
